Legend:
CDK2 activity = assay: Western blot time course of CDK2 activity in PEO4 cells; format: cell-based; conditions: for level of phosphorylated histone H1 (readout of CDK2 activity) / levels of cyclin A2 and CDK2 phosphorylation: 30 μM DB4 or 1 μM triapine; for levels of cyclin A2 and CDK2 phosphorylation: 24 hr
Procedure: PEO1 cells were treated with 30 μM DB4 or 1 μM triapine for indicated times, pulsed with EdU for 1 hr and subsequently assayed for DNA synthesis inhibition as described in FIG. 2B. The bivariate plots of Alexa Fluor 488 and PE-Cy5 were gated to determine % S phase cells. […] PEO4 cells were treated with 30 μM DB4 or 1 μM triapine for indicated times, pulsed with EdU for 1 hr and subsequently assayed for DNA synthesis inhibition as described in FIG. 2B. The bivariate plots of Alexa Fluor 488 and PE-Cy5 were gated to determine % S phase cells. […] The bivariate plots of Alexa Fluor 488 and PE-Cy5 shown in FIG. 6A and FIG. 6B were gated to determine % cells in G1, S, and G2/M phases. […] PEO4 cells were treated with 30 μM DB4 or 1 μM triapine for various time periods and subjected to western blot analysis for the levels of cyclin A2, p-CDK1/2, p-H1, p-Chk1, and HSC70. The HSC70 protein level was used as a loading control. Cropped gel images of protein bands are presented. Cyclin A2, p-CDK1/2, and p-H1 bands were from re-probing the same blot. p-Chk1 and HSC70 bands were from re-probing the same duplicated blot. […] The CDK2 activity is expressed by the percentage of the p-HI levels relative to that of the 0 hr control is shown. […] Protein was analyzed by western blotting for p-Chk1, p-ATR, p-RPA32, γH2AX, and HSC70. Cropped gel images of protein bands are presented. All protein bands were from re-probing the same blot. DSB end resection is assessed by the level of p-RPA32.
Additional studies focused on determining how DB4 inhibited CDK2 activity in comparison with triapine. […] In contrast, triapine increased the levels of cyclin A2 and CDK2 phosphorylation evidently at 24 hr. Because CDK2 phosphorylation is inhibitory, the level of phosphorylated histone H1, a substrate of CDK2, was determined as a readout of CDK2 activity (Lin Z P et al., 2014, Molecular Cancer Res, 12:381-393) to reconcile this discrepancy. […] The kinetics of CDK2 activity somewhat resembled to the level of DNA synthesis caused by DB4 and triapine.
The methodology was described previously (Lin Z P et al., 2014, Molecular Cancer Res, 12:381-393; Ratner E S et al., 2016, Br J Cancer, 114:777-786). The anti-HSC70 antibody was purchased from Santa Cruz (Santa Cruz, CA). Anti-cyclin A2, anti-phospho-ATR (Thr-1981), anti-phospho-Chk1 (Ser-345), anti-phospho-CDK1/2 (Tyr-15), and anti-Y-H2AX (Ser-139) antibodies were from Cell Signaling (Danvers, MA). Anti-phospho-RPA32 (S4/S8) and anti-BRCA2 antibodies were from Bethyl Laboratories (Montgomery, TX). Anti-phospho-histone H1 antibody was from Millipore-Sigma (Burlington, MA). To avoid the cross-reaction of secondary antibodies with previously probed primary antibodies, blots were stripped and re-probed with next primary antibodies raised in a different species in an alternate fashion. All images were acquired and processed using the G: BOX gel documentation system and the GeneSnap software (Syngene, Frederick, MD). Brightness and contrast of images were applied equally across the entire gel/blot image and to controls. Images of protein bands were cropped and only brightness-adjusted using the PowerPoint software (Microsoft, Redmond, WA). Quantification of the protein band intensity was performed using the ImageJ software (NIH, Bethesda, MD).

SKOV3 xenografts = assay: Subcutaneous growth of SKOV3 xenografts; format: in vivo, NCG mice; conditions: i.p., 4 weeks; olaparib 50 mg/kg qd, DB4 10 mg/kg q2d
Procedure: SCID-Beige mice implanted ip with PEO4ip cells were treated daily (qd) with DB4 (10 mg/kg), olaparib (50 mg/kg), and the DB4-olaparib combination for 4 weeks. Kaplan Meier analysis was performed to determine the survival time of mice following treatments. Statistical significance was determined by the Mantel-Cox test comparing the control with each treatment group (N=4-5). […] DB4 given every two days (q2d) in the DB4-olaparib combination for 4 or 6 weeks (n=4-5). […] NOD CRISPR Prkdc Il2r Gamma (NCG) mice implanted sc with SKOV3 cells were treated as described in FIG. 10C for 4 weeks during which the tumor size was measured. Statistical significance was determined by the Wilcoxon matched-pairs signed test comparing the control with each treatment group and comparing between treatment groups. […]
The efficacy of the combination of DB4 and olaparib to treat SKOV3 tumor xenografts, as determined by the tumor size, was ascertained in a subcutaneous (s.c.) mouse model (Ratner E S et al., 2016, Br J Cancer, 114:777-786; Lin Z P et al., 2018, PLOS One, 13:e0207399). […]
The progression of PEO4ip tumor xenografts in mice was evaluated by measuring the size of the circumference at the lower one-third of the abdominal area with the mouse head positioned upward. […] The growth of SKOV3 tumor xenografts was evaluated by the size of s.c. tumor using a digital caliper. […]

C=CCn1c(SCc2cccc(Cl)c2)nnc1C1CCN(Cc2nc3ccccc3s2)CC1 [DB4, 2-[(4-{4-allyl-5-[(3-chlorobenzyl)thio]-4H-1,2,4-triazol-3-yl}-1-piperidinyl)methyl]-1,3-benzothiazole]
level of phosphorylated histone H1 (readout of CDK2 activity) (CDK2 activity): down-regulation of phosphorylated histone H1 at 24 hr
levels of cyclin A2 and CDK2 phosphorylation (CDK2 activity): downregulated
Chk1 phosphorylation (CDK2 activity; time course, drug alone): did not induced Chk1 phosphorylation
inhibition of subcutaneous growth of SKOV3 xenografts (tumor size) (SKOV3 xenografts): moderately but significantly inhibited

O=C(c1cc(Cc2n[nH]c(=O)c3ccccc23)ccc1F)N1CCN(C(=O)C2CC2)CC1 [olaparib, reference compound]
inhibition of subcutaneous growth of SKOV3 xenografts (tumor size) (SKOV3 xenografts): moderately but significantly inhibited

NC(=S)NN=Cc1ncccc1N [triapine, 3-aminopyridine-2-carboxaldehyde-thiosemicarbazone, reference compound]
level of phosphorylated histone H1 (readout of CDK2 activity) (CDK2 activity): reduced the level of phosphorylated histone H1 earlier starting at 3 hr
levels of cyclin A2 and CDK2 phosphorylation (CDK2 activity): increased
